Test results published in paper PMC12114840, “Exploring the Anticancer Properties of 1,2,3-Triazole-Substituted Andrographolide Derivatives” (Pharmaceuticals, 2025).

Key:
[1] = system: HCT116 cells (colorectal adenocarcinoma); experiment: Sulforhodamine B (SRB) antiproliferative assay, HCT116; type: cell-based; conditions: Homo sapiens, HCT-116, HCT116, 48 h, mean ± SEM of four to six independent experiments
Procedure: (§1) The antiproliferative properties of andrographolide and all prepared derivatives (2–26) were evaluated against a panel of different cancer cell lines, including human pancreatic ductal adenocarcinoma (PANC-1), colorectal adenocarcinoma (HCT116), melanoma (A375), breast adenocarcinoma (MCF-7) and a non-tumorigenic colon (CCD-18Co) cell line using the sulforhodamine B assay.
(§2) Human breast adenocarcinoma MCF-7, pancreatic ductal adenocarcinoma PANC-1, melanoma A375, and non-tumorigenic colon CCD-18Co cell lines were purchased from ATCC (Rockville, MD, USA). Human colorectal adenocarcinoma HCT116 cells were kindly provided by B. Vogelstein (The Johns Hopkins Kimmel Cancer Center, Baltimore, MD, USA). Tumor cells were routinely cultured in RPMI-1640 medium with UltraGlutamine from Biowest (VWR, Carnaxide, Portugal) supplemented with 10% fetal bovine serum (FBS) from Biowest (VWR, Carnaxide, Portugal), except for the PANC-1 cells, which were grown in DMEM (4.5 g/L glucose) with stable L-glutamine and sodium pyruvate and supplemented with 10% FBS. The non-tumorigenic CCD-18Co cells were cultured in EMEM (Lonza, VWR, Carnaxide, Portugal), supplemented with 10% FBS. All cells were incubated at 37 °C in a humidified atmosphere of 5% CO2. Routine mycoplasma testing was performed using the MycoAlert™ PLUS mycoplasma detection kit (Lonza).
(§3) For the evaluation of the compound effect on cell proliferation, human cell lines were seeded in 96-well plates at a density of 5.0 × 10^3 (HCT116, MCF-7, PANC-1, A375, and CCD-18Co) cells per well, for 24 h. Cells were then treated with serial dilutions of the compound (ranging from 0.63 to 30 µM), for an additional 48 h incubation period. The growth inhibitory effects were assessed by SRB assay, as described in [58], and the half-maximal inhibitory concentration (IC50 values) were determined for each cell line using the GraphPad Prism software version 7.0 (La Jolla, CA, USA). Culture medium containing a maximum of 0.05% dimethyl sulfoxide (DMSO) was used as negative control.

[2] = system: PANC-1 cells (pancreatic ductal adenocarcinoma); experiment: Sulforhodamine B (SRB) antiproliferative assay, PANC-1; type: cell-based, human; conditions: Homo sapiens; PANC-1, 48 h, SRB; mean ± SEM of four to six independent experiments
Procedure: as §1, §2, §3

[3] = system: CCD-18Co cells (non-tumorigenic colon); experiment: Sulforhodamine B (SRB) antiproliferative assay, CCD-18Co; type: cell-based; conditions: Homo sapiens, CCD-18Co non-tumorigenic, 48 h, mean ± SEM of four to six independent experiments
Procedure: as §1, §2, §3

[4] = system: A375 cells (melanoma); experiment: Sulforhodamine B (SRB) antiproliferative assay, A375; type: cell-based; conditions: Homo sapiens, A-375, A375, 48 h, mean ± SEM of four to six independent experiments
Procedure: as §1, §2, §3

[5] = system: MCF-7 cells (breast adenocarcinoma); experiment: Sulforhodamine B (SRB) antiproliferative assay, MCF-7; type: cell-based; conditions: Homo sapiens, MCF7, MCF-7, 48 h, mean ± SEM of four to six independent experiments
Procedure: as §1, §2, §3

Row | Structure (SMILES) | IC50 [1] [µM] | IC50 [2] [µM] | IC50 [3] [µM] | IC50 [4] [µM] | IC50 [5] [µM]
1 | C=C1CC[C@@H]2[C@](C)(CO)[C@H](O)CC[C@@]2(C)[C@@H]1C/C=C1/C(=O)OC[C@H]1O [Compound 1, andrographolide] | 5.1 ± 1.5 | 3.1 ± 0.1 | 6.2 ± 1.1 | 4 ± 0.1 | 13.5 ± 0.5
2 | C=C1CC[C@@H]2[C@](C)(COC(C)=O)[C@H](OC(C)=O)CC[C@@]2(C)[C@@H]1C/C=C1/C(=O)OC[C@H]1OC(C)=O [Compound 2, 3,14,19-Triacetyl Andrographolide] | 1.4 ± 0.1 | 1.9 ± 0.2 | 5.6 ± 1.3 | 1.2 ± 0.2 | 4.9 ± 0.1
3 | C=C1CC[C@@H]2[C@](C)(COC(C)=O)[C@H](OC(C)=O)CC[C@@]2(C)[C@@H]1C[C@@H](N=[N+]=[N-])C1=CCOC1=O [Compound 3, (12R)-azido-3,19-diacetoxy-14-deoxy-andrographolide] | 7.9 ± 2.1 | 1.9 ± 0.1 | 3.8 ± 0.7 | 1.3 ± 0.1 | 6.6 ± 0.1
4 | C=C1CC[C@@H]2[C@](C)(COC(C)=O)[C@H](OC(C)=O)CC[C@@]2(C)[C@@H]1C[C@H](N=[N+]=[N-])C1=CCOC1=O [Compound 4, (12S)-azido-3,19-diacetoxy-14-deoxy-andrographolide] | 1.5 ± 0.2 | 3 ± 0.2 | 2.2 ± 0.8 | 1.2 ± 0.2 | 6.9 ± 0.8
5 | C=C1CC[C@@H]2[C@](C)(COC(C)=O)[C@H](OC(C)=O)CC[C@@]2(C)[C@@H]1C[C@H](C1=CCOC1=O)n1cc(C(C)(C)O)nn1 [Compound 5, (12R)-4-(2-methyl-2-ol)-1,2,3-triazole-3,19-diacetoxy-14-deoxy-andrographolide] | 8.4 ± 1.1 | 8.5 ± 1 | 7.1 ± 2.6 | 7.7 ± 1.3 | 25 ± 3
6 | C=C1CC[C@@H]2[C@](C)(COC(C)=O)[C@H](OC(C)=O)CC[C@@]2(C)[C@@H]1C[C@H](C1=CCOC1=O)n1cc(C(=O)OCC)nn1 [Compound 6, (12R)-4-propriolate-1,2,3-triazole-3,19-diacetoxy-14-deoxy-andrographolide] | 1.2 ± 0.1 | 3.4 ± 0.9 | 4.4 ± 0.2 | 1.3 ± 0.3 | 3.8 ± 0.2
7 | C=C1CC[C@@H]2[C@](C)(COC(C)=O)[C@H](OC(C)=O)CC[C@@]2(C)[C@@H]1C[C@H](C1=CCOC1=O)n1cc(CNC(=O)OC(C)(C)C)nn1 [Compound 7, (12R)-4-(tert-butylmethyl carbamate)-1,2,3-triazole-3,19-diacetoxy-14-deoxy-andrographolide] | 1.6 ± 0.4 | 4.1 ± 0.3 | 12.9 ± 2.2 | 3.6 ± 0.9 | 18 ± 0.1
8 | C=C1CC[C@@H]2[C@](C)(COC(C)=O)[C@H](OC(C)=O)CC[C@@]2(C)[C@@H]1C[C@H](C1=CCOC1=O)n1cc(Cc2ccccc2)nn1 [Compound 8, (12R)-4-benzyl-1,2,3-triazole-3,19-diacetoxy-14-deoxy-andrographolide] | 2.1 ± 0.6 | 3.1 ± 0.4 | 8.7 ± 1.9 | 23 ± 2 | 15.5 ± 0.5
9 | C=C1CC[C@@H]2[C@](C)(COC(C)=O)[C@H](OC(C)=O)CC[C@@]2(C)[C@@H]1C[C@@H](C1=CCOC1=O)n1cc(Cc2ccccc2)nn1 [Compound 9, (12S)-4-benzyl-1,2,3-triazole-3,19-diacetoxy-14-deoxy andrographolide] | 1.9 ± 0.6 | 2 ± 0.1 | 3.8 ± 0.9 | 2.1 ± 0.3 | 8.1 ± 0.1
10 | C=C1CC[C@@H]2[C@](C)(COC(C)=O)[C@H](OC(C)=O)CC[C@@]2(C)[C@@H]1C[C@H](C1=CCOC1=O)n1cc(-c2ccccc2)nn1 [Compound 10, (12R)-4-phenyl-1,2,3-triazole-3,19-diacetoxy-14-deoxy-andrographolide] | 2.2 ± 0.1 | 3.8 ± 0.7 | 7.2 ± 0.6 | 7.7 ± 1 | 7.8 ± 0.8
11 | C=C1CC[C@@H]2[C@](C)(COC(C)=O)[C@H](OC(C)=O)CC[C@@]2(C)[C@@H]1C[C@@H](C1=CCOC1=O)n1cc(-c2ccccc2)nn1 [Compound 11, (12S)-4-phenyl-1,2,3-triazole-3,19-diacetoxy-14-deoxy-andrographolide] | 1.9 ± 0.3 | 3.4 ± 0.6 | 3.3 ± 0.4 | 8.2 ± 0.1 | 4.2 ± 0.8
12 | C=C1CC[C@@H]2[C@](C)(COC(C)=O)[C@H](OC(C)=O)CC[C@@]2(C)[C@@H]1C[C@H](C1=CCOC1=O)n1cc(-c2ccc(N)cc2)nn1 [Compound 13, (12R)-4-aniline-1,2,3-triazole-3,19-diacetoxy-14-deoxy-andrographolide] | 4.8 ± 1.3 | 6.5 ± 0.4 | 30 ± 2 | 6.8 ± 0.9 | 26 ± 3
13 | C=C1CC[C@@H]2[C@](C)(COC(C)=O)[C@H](OC(C)=O)CC[C@@]2(C)[C@@H]1C[C@H](C1=CCOC1=O)n1cc(-c2ccc(C#N)cc2)nn1 [Compound 14, (12R)-4-benzonitrile-1,2,3-triazole-3,19-diacetoxy-14-deoxy-andrographolide] | 2 ± 0.6 | 2.5 ± 0.3 | 3.7 ± 0.9 | 1.7 ± 0.2 | 7.9 ± 0.6
14 | C=C1CC[C@@H]2[C@](C)(COC(C)=O)[C@H](OC(C)=O)CC[C@@]2(C)[C@@H]1C[C@@H](C1=CCOC1=O)n1cc(-c2ccc(C#N)cc2)nn1 [Compound 15, (12S)-4-benzonitrile-1,2,3-triazole-3,19-diacetoxy-14-deoxy-andrographolide] | 1.3 ± 0.1 | 3.3 ± 0.9 | 6.2 ± 1.2 | 1.2 ± 0.2 | 5.6 ± 0.2
15 | C=C1CC[C@@H]2[C@](C)(COC(C)=O)[C@H](OC(C)=O)CC[C@@]2(C)[C@@H]1C[C@H](C1=CCOC1=O)n1cc(-c2ccc(OC)cc2)nn1 [Compound 16, (12R)-4-(4-methoxyphenyl)-1,2,3-triazole-3,19-diacetoxy-14-deoxy-andrographolide] | 2.3 ± 0.9 | 2.3 ± 0.2 | 6.8 ± 1 | 1.5 ± 0.2 | 9.3 ± 0.1
16 | C=C1CC[C@@H]2[C@](C)(COC(C)=O)[C@H](OC(C)=O)CC[C@@]2(C)[C@@H]1C[C@@H](C1=CCOC1=O)n1cc(-c2ccc(OC)cc2)nn1 [Compound 17, (12S)-4-(4-methoxyphenyl)-1,2,3-triazole-3,19-diacetoxy-14-deoxy-andrographolide] | 1.7 ± 0.5 | 2.1 ± 0.1 | 4.4 ± 0.9 | 0.9 ± 0.1 | 5.6 ± 0.2
17 | C=C1CC[C@@H]2[C@](C)(COC(C)=O)[C@H](OC(C)=O)CC[C@@]2(C)[C@@H]1C[C@H](C1=CCOC1=O)n1cc(-c2ccc(OC(F)(F)F)cc2)nn1 [Compound 18] | 3.7 ± 0.5 | 3.5 ± 1.6 | 5.1 ± 0.1 | 6.6 ± 0.8 | 9.5 ± 0.5
18 | C=C1CC[C@@H]2[C@](C)(COC(C)=O)[C@H](OC(C)=O)CC[C@@]2(C)[C@@H]1C[C@@H](C1=CCOC1=O)n1cc(-c2ccc(OC(F)(F)F)cc2)nn1 [Compound 19] | 4.1 ± 0.2 | 3.1 ± 0.8 | 6.6 ± 0.9 | 7.1 ± 0.1 | 7.9 ± 1.5
19 | C=C1CC[C@@H]2[C@](C)(COC(C)=O)[C@H](OC(C)=O)CC[C@@]2(C)[C@@H]1C[C@H](C1=CCOC1=O)n1cc(-c2ccc(-c3ccccc3)cc2)nn1 [Compound 20] | 1.4 ± 0.3 | 3 ± 1.1 | 3.5 ± 0.3 | 3.3 ± 1.3 | 28 ± 2
20 | C=C1CC[C@@H]2[C@](C)(COC(C)=O)[C@H](OC(C)=O)CC[C@@]2(C)[C@@H]1C[C@@H](C1=CCOC1=O)n1cc(-c2ccc(-c3ccccc3)cc2)nn1 [Compound 21] | 1.2 ± 0.2 | 3.5 ± 0.3 | 4.4 ± 0.8 | 1.3 ± 0.3 | 10.4 ± 0.7
21 | C=C1CC[C@@H]2[C@](C)(COC(C)=O)[C@H](OC(C)=O)CC[C@@]2(C)[C@@H]1C[C@H](C1=CCOC1=O)n1cc(-c2ccncc2)nn1 [Compound 22, (12R)-4-(4-pyridine)-1,2,3-triazole-3,19-diacetoxy-14-deoxy-andrographolide] | 1.6 ± 0.3 | 5 ± 0.4 | 3.2 ± 0.9 | 1.3 ± 0.2 | 5.9 ± 0.1
22 | C=C1CC[C@@H]2[C@](C)(COC(C)=O)[C@H](OC(C)=O)CC[C@@]2(C)[C@@H]1C[C@@H](C1=CCOC1=O)n1cc(-c2ccncc2)nn1 [Compound 23, (12S)-4-(4-pyridine)-1,2,3-triazole-3,19-diacetoxy-14-deoxy-andrographolide] | 2.8 ± 0.8 | 6.3 ± 1.9 | 4.1 ± 0.9 | 3.3 ± 1 | 11 ± 0.2
